Earlier results as cited in patent publication US20070167517A1, “Stabilized derivatives of ascorbic aicd” (Tagra Biotechnologies Ltd., priority 2003, published 2007).

Columns and labels:
[1] = in the human
[2] = standard solutions and topical formulations, RP-HPLC

Row | half-life [1] | Structure (SMILES) | stability [2]
1 | about 20 days | O=C1O[C@H]([C@@H](O)CO)C(O)=C1O [ascorbic acid] | 
2 |  | CCCCCCCCCCCCCCCC(=O)OC[C@H](O)[C@H]1OC(=O)C(O)=C1O [ascorbyl palmitate, 6-ascorbyl palmitate] | did not prevent hydrolysis of the molecule
3 |  | O=C1O[C@H]([C@@H](O)CO)C(O)=C1OP(=O)([O-])[O-].[Mg+2] [magnesium ascorbyl phosphate, magnesium L-ascorbic acid-2-phosphate] | very stable
